Assay results taken from patent US20240024340A1, “Compositions and Methods For Treating Migraine” (priority 2020, published 2024).
Entries after “also recorded” stand apart in the source; their conditions may differ.

Columns and labels:
BALB/c mice [1] = type: in vivo; conditions: for effect on TST immobility compared to vehicle: Day 22 (FIG. 6B), imipramine 15 mg/kg, psilocybin 5 mg/kg Day 1, or both
Method: Imipraime (15 mg/kg) was given 1 hour before tail suspension testing on Day 22. […] For positive control, one group was given imipramine which is known to reduce immobility in TST in stressed mice.
Analysis: Simple comparisons between two groups were measured through inferential means.
Psilocybin loading dose was given 3-weeks prior to behavioral testing and imipramine was given 1-hour before testing on each testing day via Intraperitoneal injection (i.p, 5 ml/kg).

BALB/c mice [2] = assay: Elevated plus maze (EPM), anxiety-like behavior
BALB/c mice [3] = assay: Tail suspension test (TST), depression; psilocybin loading dose then psilocybin+CBD+6 MB maintenance

Compound | effect on TST immobility compared to vehicle (BALB/c mice [1]) | effect of psilocybin loading dose on anti-depressive properties of imipramine (BALB/c mice [1]; psilocybin 5 mg/kg Day 1, imipramine 15 mg/kg one hour before TST on Day 22 or Day 29) | percentage of time spent in open space / open arms of the EPM (BALB/c mice [2]; Day 14, two weeks after loading dose of 5 mg/kg psilocybin, vs vehicle control, 5 mg/kg) | anxiety (symptoms) in mouse model (BALB/c mice [2]; loading dose psilocybin 5 mg/kg, alone or followed by low dose psilocybin, CBD and 6 mushroom blend) | immobile posture time in TST (BALB/c mice [3]; Day 15, psilocybin loading dose 5 mg/kg on Day 1) | immobility time in TST (BALB/c mice [3]; Day 22 (three weeks after 5 mg/kg loading dose of psilocybin), all groups receiving a loading dose) | depression (symptoms) in mouse model (BALB/c mice [3]; loading dose psilocybin 5 mg/kg, alone or followed by maintenance psilocybin, CBD and 6 mushroom blend)
CN(C)CCCN1c2ccccc2CCc2ccccc21 [imipramine] | anti-depressant effect |  |  |  |  |  | 
[3-(2-dimethylaminoethyl)-1H-indol-4-yl] dihydrogen phosphate [psilocybin] | anti-depressant effect | potentiate | significantly increased; also recorded: more time | decreased | decreased | significantly lower; also recorded: significant decrease | decreased
